Reference: patent US7217805B2, “Bicyclonucleoside analogues” (Sankyo Company, Limited, priority 1999, dated 2007)
[3'-NH2-LNA] = 3'-amino-3'-deoxy-2'-O,4'-C-methylene-5-methyluridine; d = 2'-deoxy (DNA)

Tested on: double stranded DNA with the sequence of 5′-gctaaaaagaaagagagatcg-3′ (SEQ ID NO: 3) and its complementary strand 5′-cgatctctctttctttttagc-3′ (SEQ ID NO: 4)
Experiment: Measurement of Tm for determination of activity of triplet formation
Assay type: binding
Settings: 7 mM sodium phosphate buffer pH 7.0, 140 mM KCl, 1.5 μM each nucleotide, UV 260 nm

| Substance | Tm (With MgCl2 (10 mM)) [°C] | Tm (Without MgCl2) [°C] |
| --- | --- | --- |
| Oligonucleotide (3): natural oligonucleotide which forms a triplet, 5′tttttmtttmtmtmt-3′ (SEQ ID NO: 5), m is 5-methyl-2′deoxycytidine (TTTTTNTTTNTNTNT; 5-methyl-2'-deoxycytidine, chemistry not fully specified) | 44 | 32 |
| Oligonucleotide (2): 5′-tttttmtntmtmtmt-3′ (SEQ ID NO: 2), m is 5-methyl 2′-deoxycytidine, n is 3′-amino-3′-deoxy-2′-O,4′-C-methylene-5-methyluridine (TTTTTCTTTCTCTCT; sugars from the 5' end d7 [3'-NH2-LNA]1 d7, all C 5-methyl, backbone not given here; triplex-forming oligonucleotide, further chemistry not fully specified) | 55 | 44 |
